Reference: patent US6359152B2, “18-substituted-19-nor-vitamin D compounds” (Wisconsin Alumni Research Foundation, priority 1997, dated 2002)

How the values were obtained:
[1] = test system: Serum Calcium (Bone Calcium Mobilization); experiment: Serum calcium (bone calcium mobilization) in vitamin D-deficient rats after chronic dosing; assay type: in vivo; settings: for Serum Calcium (mg/100 ml): intraperitoneal, vitamin D-deficient low calcium diet rats, mean ± SEM, 24 h after last dose; for bone calcium mobilizing activity (in words): versus control, given for 7 days in a chronic mode
Procedure: (§1) Male weanling rats were obtained from Sprague Dawley Co. (Indianapolis, Ind.) and fed a 0.47% calcium, 0.3% phosphorus vitamin D-deficient diet for 1 week and then given the same diet containing 0.02% calcium, 0.3% phosphorus for 3 weeks. During the last week they were given the indicated dose of compound by intraperitoneal injection in 0.1 ml 95% propylene glycol and 5% ethanol each day for 7 days. The control animals received only the 0.1 ml of 95% propylene glycol, 5% ethanol. Twenty-four hours after the last dose, the rats were sacrificed and intestinal calcium transport was determined by everted sac technique as previously described and serum calcium determined by atomic absorption spectrometry on a model 3110 Perkin Elmer instrument (Norwalk, Conn.). There were 5 rats per group and the values represent mean ±SEM.

[2] = test system: Intestinal Calcium Transport; experiment: Intestinal calcium transport (everted sac) in vitamin D-deficient rats after chronic dosing; assay type: in vivo; settings: for Intestinal Calcium Transport (S/M): intraperitoneal, vitamin D-deficient low calcium diet rats, mean ± SEM, 24 h after last dose; for intestinal calcium transport activity (in words): versus control, given for 7 days in a chronic mode
Procedure: as §1

[3] = test system: HL-60 cells; settings: compared to 1,25-(OH)2D3; FIG. 2
Procedure: The differentiation of HL-60 promyelocytic into monocytes was determined as described by Ostrem et al (J. Biol. Chem. 262, 14164-14171, 1987).

[4] = biological target: T1, porcine intestinal vitamin D receptor (Sus scrofa, UniProt A3RGC1); experiment: Competitive binding of [3H]-1,25-(OH)2-D3 to the porcine intestinal vitamin D receptor; settings: at low concentrations; FIG. 1
T1 sequence (A3RGC1 1-427): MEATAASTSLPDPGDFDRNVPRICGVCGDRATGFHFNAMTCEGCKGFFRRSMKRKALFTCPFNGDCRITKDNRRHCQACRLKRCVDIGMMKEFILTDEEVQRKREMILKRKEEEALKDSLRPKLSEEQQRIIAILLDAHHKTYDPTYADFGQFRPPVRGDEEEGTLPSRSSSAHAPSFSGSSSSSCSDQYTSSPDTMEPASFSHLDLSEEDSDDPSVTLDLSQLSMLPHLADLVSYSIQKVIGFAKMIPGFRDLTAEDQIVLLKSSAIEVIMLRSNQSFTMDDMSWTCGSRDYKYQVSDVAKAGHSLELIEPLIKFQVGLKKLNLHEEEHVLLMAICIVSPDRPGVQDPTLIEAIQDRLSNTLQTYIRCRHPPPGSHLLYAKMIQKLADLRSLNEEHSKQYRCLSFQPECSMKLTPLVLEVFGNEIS
Procedure: Competitve binding of the analogs to the porcine intestinal receptor was carried out by the method described by Dame et al (Biochemistry 25, 4523-4534, 1986).

SMILES	Serum Calcium (mg/100 ml) ([1]; 260 pmol/day for 7 days)	Intestinal Calcium Transport (S/M) ([2]; 260 pmol/day for 7 days)	Serum Calcium (mg/100 ml) ([1]; 500 pmol/day for 7 days)	bone calcium mobilizing activity (in words) [1]	Intestinal Calcium Transport (S/M) ([2]; 500 pmol/day for 7 days)	intestinal calcium transport activity (in words) [2]	activity in inducing differentiation of HL-60 cells to the monocyte [3]	binding activity compared to 1,25-(OH)2D3 [4]
C[C@H](CCCC(C)(C)O)[C@H]1CC[C@H]2/C(=C/C=C3C[C@@H](O)C[C@H](O)C3)CCC[C@]12C [19-Nor-1,25-(OH)2D3, 1α,25-dihydroxy-19nor-vitamin D3, reference compound]	3.83 ± 0.20	4.02 ± 0.50	–	–	–	–	–	–
C=CC12CCC/C(=C\C=C3C[C@@H](O)C[C@H](O)C3)[C@@H]1CC[C@@H]2[C@H](C)CCCC(C)(C)O (stereo partly drawn) [13-Vinyl-18,19-Dinor-1,25-(OH)2D3, 1α,25-dihydroxy-13-vinyl-18,19-dinor-vitamin D3]	3.32 ± 0.21	4.02 ± 0.24	3.52 ± 0.12	no significant change versus control	4.25 ± 0.55	no significant change versus control	activity similar to 1,25-(OH)2D3	approximately twice
CC[C@]12CCC/C(=C\C=C3C[C@@H](O)C[C@H](O)C3)[C@@H]1CC[C@@H]2[C@H](C)CCCC(C)(C)O [13-Ethyl-18,19-Dinor-1,25-(OH)2D3, 1α,25-dihydroxy-13-ethyl-18,19-dinor-vitamin D3]	4.39 ± 0.53	4.30 ± 0.20	3.99 ± 0.33	no significant change versus control	4.40 ± 0.27	no significant change versus control	activity similar to 1,25-(OH)2D3	approximately twice
